Test results taken from US4590271A, “2,4-diamino-5-(substituted)pyrimidines, useful as antimicrobials” (Burroughs Wellcome Co., priority 1982, dated 1986).
≈ marks a conversion by molar mass, not a printed value.

Legend:
B. fragilis = assay: Minimum inhibitory concentration in vitro, B. fragilis; format: cell-based; details: Bacteroides fragilis, mean of 3 Strains, read-out: Minimum Inhibitory Concentrations
St. pyogenes CN10 = assay: Minimum inhibitory concentration in vitro, St. pyogenes CN10; format: cell-based; details: Streptococcus pyogenes, read-out: Minimum Inhibitory Concentrations
Esch. coli CN314 = assay: Minimum inhibitory concentration in vitro, Esch. coli CN314; format: cell-based; details: Escherichia coli, read-out: Minimum Inhibitory Concentrations
Staph. aureus CN491 = assay: Minimum inhibitory concentration in vitro, Staph. aureus CN491; format: cell-based; details: Staphylococcus aureus, read-out: Minimum Inhibitory Concentrations
St. faecalis CN478 = assay: Minimum inhibitory concentration in vitro, St. faecalis CN478; format: cell-based; details: Enterococcus faecalis, read-out: Minimum Inhibitory Concentrations
N. gonorrhoeae = assay: Minimum inhibitory concentration in vitro, N. gonorrhoeae; format: cell-based; details: Neisseria gonorrhoeae, mean of 17 strains, read-out: Minimum Inhibitory Concentrations
St. agalactiae CN1143 = assay: Minimum inhibitory concentration in vitro, St. agalactiae CN1143; format: cell-based; details: Streptococcus agalactiae, read-out: Minimum Inhibitory Concentrations
bacterial = details: amongst the 2,4-diamino-5-benzylpyrimidines known to date; cited from earlier work

## COc1cc(Cc2cnc(N)nc2N)c2c(C)c(C)oc2c1OC [Compound 1, 2,4-Diamino-5-(6,7-dimethoxy-2,3-dimethyl-4-benzofuranylmethyl)pyrimidine]
B. fragilis
  MIC: 25 µg/mL (≈ 76.1 µM)
St. pyogenes CN10
  MIC: 5 µg/mL (≈ 15.2 µM)
Esch. coli CN314
  MIC: 0.5 µg/mL (≈ 1.52 µM)
Staph. aureus CN491
  MIC: 0.5 µg/mL (≈ 1.52 µM)
St. faecalis CN478
  MIC: 0.5 µg/mL (≈ 1.52 µM)
N. gonorrhoeae
  MIC: 25 µg/mL (≈ 76.1 µM)
St. agalactiae CN1143
  MIC: 5 µg/mL (≈ 15.2 µM)

## COc1cc(Cc2cnc(N)nc2N)c2c(c1OC)OC(C)C2 (stereo not shown) [Compound 2, 2,4-Diamino-5-(2,3-dihydro-6,7-dimethoxy-2-methyl-4-benzofuranylmethyl)-pyrimidine]
B. fragilis
  MIC: 6.2 µg/mL (≈ 19.6 µM)
St. pyogenes CN10
  MIC: 0.5 µg/mL (≈ 1.58 µM)
Esch. coli CN314
  MIC: 0.5 µg/mL (≈ 1.58 µM)
Staph. aureus CN491
  MIC: 0.5 µg/mL (≈ 1.58 µM)
St. faecalis CN478
  MIC: 0.05 µg/mL (≈ 0.158 µM)
St. agalactiae CN1143
  MIC: 0.5 µg/mL (≈ 1.58 µM)

## COc1cc(Cc2cnc(N)nc2N)c2cc(C)oc2c1OC [Compound 3, 2,4-Diamino-5-(6,7-dimethoxy-2-methyl-4-benzofuranylmethyl)pyrimidine]
B. fragilis
  MIC: 0.6 µg/mL (≈ 1.91 µM)
St. pyogenes CN10
  MIC: 0.05 µg/mL (≈ 0.159 µM)
Esch. coli CN314
  MIC: 0.5 µg/mL (≈ 1.59 µM)
Staph. aureus CN491
  MIC: 0.05 µg/mL (≈ 0.159 µM)
St. faecalis CN478
  MIC: 0.05 µg/mL (≈ 0.159 µM)
N. gonorrhoeae
  MIC: 2.8 µg/mL (≈ 8.91 µM)
St. agalactiae CN1143
  MIC: 0.05 µg/mL (≈ 0.159 µM)

## COc1cc(Cc2cnc(N)nc2N)cc(OC)c1OC [TMP, 2,4-Diamino-5-(3,4,5-trimethoxybenzyl)pyrimidine, reference compound]
B. fragilis
  MIC: 3.1 µg/mL (≈ 10.7 µM)
St. pyogenes CN10
  MIC: 0.5 µg/mL (≈ 1.72 µM)
Esch. coli CN314
  MIC: 0.05 µg/mL (≈ 0.172 µM)
Staph. aureus CN491
  MIC: 0.5 µg/mL (≈ 1.72 µM)
St. faecalis CN478
  MIC: 0.1 µg/mL (≈ 0.344 µM)
N. gonorrhoeae
  MIC: 40 µg/mL (≈ 138 µM)
St. agalactiae CN1143
  MIC: 0.5 µg/mL (≈ 1.72 µM)
bacterial
  general antibacterial activity: most active general antibacterial agent
